Read-outs that look alike come from different tables or passages of the source. Bounds are passed on as bounds.

The test system of series [1] is asexual blood-stage P. falciparum strain Dd2L. The series is described as follows: asexual blood-stage P. falciparum assay with SYBR Green detection. The format is cell-based, Plasmodium falciparum. Particulars: for EC50: Plasmodium falciparum, 72 h; for blood-stage antimalarial activity (in words): P. falciparum. As to the method:
A standard method for evaluating antimalarial activity with asexual blood-stage P. falciparum and SYBR Green detection was used to assess the potency of extracts, fractions, and compounds [50]. Screening media was prepared from complete media supplemented with 0.05% Albumax II (but without human serum). Dr. David Fidock of Columbia University provided P. falciparum strain Dd2L, which was cultured with fresh O+ erythrocytes (TSRI Normal Blood Donation). Compounds were transferred to assay plates using a Labcyte ECHO acoustic liquid handler. Fresh and parasitized erythrocytes were prepared in screening media before inoculating plates (Multi-Flo; BioTek, VT) with a final hematocrit of 2.5% and a final parasitemia of 0.3%. The assay plates were incubated for 72 h in a chamber at 37 °C with a low oxygen gas formulation with daily gas exchanges. After incubation, a Multi-Flo liquid dispenser transferred SYBR Green lysis buffer to the wells, and the plates were incubated for another 24 h at room temperature to achieve optimal development of fluorescence signal, which was read by an Envision Multimode Reader (PerkinElmer, MA).

Series [2] deals with liver-stage P. berghei (Pb-Luc sporozoites in HepG2 cells). The series is described as follows: microbe, parasite or virus in culture. The format is cell-based, Plasmodium berghei. Particulars: read-out: Liver-Stage P. berghei half-maximal effective concentration (EC50). As to the method: Activity against liver-stage P. berghei was quantified for extracts, fractions, and pure compounds using a slightly modified 48 h luminescence-based assay. The salivary gland of infected Anopheles stephensi was dissected to harvest P. berghei-ANKA-GFP-LucSMCON (Pb-Luc) sporozoites (originally received from Dr. Ana Rodriguez of NYU School of Medicine; last round of testing to evaluate pure 1, 3–5 used infected mosquitoes from Elizabeth Winzeler at UCSD and Dennis Kyle at UGA) which were filtered through a 20 μm nylon net filter twice (Steriflip, Millipore, MA), counted with a hemocytometer, and adjusted to achieve a final concentration of 200 sporozoites/1 μL in the assay media (DMEM without Phenol Red (Life Technologies, CA), 5% FBS, and 5 × Pen−Strep and glutamine (Life Technologies, CA)). A Multi-Flo (BioTek, VT) with a 1 μL cassette was used to transfer purified sporozoites, 1 × 10^3 sporozoites per well (5 μL), to assay plates containing HepG2 cells. After incubation at 37 °C for 48 h, a bioluminescence measurement was taken to assess the liver-stage growth. More specifically, media was removed by inverting the plates, and spinning them at 150 × g for 30 s, and 2 μL per well of BrightGlo (Promega, WI) was added for quantification of Pb-Luc viability. The luminescence was measured immediately after addition of the luminescence reagent using an Envision Multilabel Reader (PerkinElmer, MA).

Another series deals with HEK293T cells. Kind of series: HEK293T cytotoxicity. The following applies: for HEK293T Cytotoxicity, half-maximal cytotoxicity concentration: HEK293T cells. Here is the method:
A previously described method was utilized to evaluate cytotoxicity against HepG2 and HEK293T cells as a measure of general human toxicity. Assay data generated for Plasmodium was analyzed with a Genedata Screener (v13.0-Standard). Inhibitors (puromycin for cytotoxicity and atovaquone for liver-stage parasites) were subtracted from neutral controls to normalize data. The Smart Fit function of the Genedata Analyzer generated dose-response curves that were used to calculate the half-maximal effective concentrations (EC50).

Another series deals with HepG2 cells. The series is described as follows: HepG2 cytotoxicity. The format is cell-based, human. The following applies: for HepG2 Cytotoxicity, half-maximal cytotoxicity concentration: HepG2 cells.
In another series the target is T1, rabbit muscle actin (Oryctolagus cuniculus, UniProt P68135).
T1 construct: purchased Abcam ab239724
Kind of series: actin polymerization assay (pyrene-labeled rabbit muscle actin). The format is biochemical. The source says:
Of the proteins predicted to bind to kakeromamide (1), actin and sortilin were deemed worthy of further evaluation given their higher predicted binding values. However, no in vitro sortilin assay is available. In contrast, actin polymerization assays are frequently employed to assess agents that affect actin dynamics, albeit using mammalian homologs of actin. Since 1 was predicted to bind to both Plasmodium and mammalian actin proteins but only mammalian actin assays are commercially available, an actin polymerization assay that uses pyrene-labeled rabbit muscle actin was employed. Several natural products are known to disrupt actin’s function by either inhibiting or stabilizing polymerization, which could arise from ligand binding. Since apicomplexan actins (including those of Plasmodium) and mammalian actins are relatively divergent, Plasmodium actin might be a useful molecular target. […] Similar activity by 1 could be one possible explanation for the observed increase in actin polymerization with increasing concentrations of 1. Although 1 appears to impact mammalian actin polymerization, future tests evaluating the impact of 1 on Plasmodium actin function would be worthwhile in order to further elucidate whether interactions with actin are relevant to this natural product’s mechanism of action on the malaria parasite.
The computationally predicted binding of 1 to actin was experimentally evaluated using a rabbit muscle actin polymerization assay kit from Abcam (kit ab239724) using the manufacturer’s protocol. Mean signal for n = 3 (actin polymerization control, solvent control, and background) or n = 2 (four different concentrations of latrunculin A and kakeromamide B) replicates was acquired for time points taken every 30 s for 1 h on a Synergy H4 plate reader. The results were plotted in GraphPad Prism 8 with an exponential plateau curve.

[3] abbreviates: Plasmodium berghei, HepG2, 48 h.
Where [4] appears, read: read-out: Blood-Stage P. falciparum half-maximal effective concentration (EC50), asexual blood-stage, strain Dd2L, 72 h, SYBR Green.
Where [5] appears, read: Plasmodium berghei, HepG2, 48 h, sporozoites from University of California San Diego (UCSD), 48 h.
Setting [6] is: Plasmodium berghei, HepG2, 48 h, sporozoites from the University of Georgia (UGA), 48 h.

Regarding `CCC[C@H]1NC(=O)c2csc(n2)[C@H](C)NC(=O)[C@H](C(C)C)N(C)C(=O)[C@H](Cc2ccccc2)N(C)C(=O)[C@H](C)OC(=O)[C@@H]1C` [Compound 2, ulongamide A], the EC50 is 0.99 µM in series [1] (read-out: Blood-Stage P. falciparum half-maximal effective concentration (EC50)) and above 4 µM in series [2] (setting [3]). For the same molecule, the “HEK293T Cytotoxicity, half-maximal cytotoxicity concentration” value (“HEK293T Cytotoxicity” below) in the series on HEK293T cells was above 4.8 µM.

For the molecule `CO[C@@H]1[C@@H](OC)[C@H](C)O[C@@H](O[C@@H]2C[C@@H]3CC[C@H](C)[C@@H](O)C[C@](C)(CC/C=C/C=C/Br)OC(=O)C[C@](O)(C2)O3)[C@@H]1OC` [Compound 4, 18E-lyngbyaloside C], the “blood-stage antimalarial activity (in words)” value in series [1] was “inactive”. Moreover, the EC50 is above 19 µM in series [1] (setting [4]), above 16 µM in series [2] (setting [5]) and 7.1 µM in series [2] (setting [6]). Further, the “HEK293T Cytotoxicity” value in the series on HEK293T cells was above 31 µM. Moreover, the “HepG2 Cytotoxicity, half-maximal cytotoxicity concentration” value (“HepG2 Cytotoxicity” below) with HepG2 cells was 17 µM.

Regarding `CCCCCC1NC(=O)c2csc(n2)C(C)NC(=O)C(Cc2ccc(OC)cc2)N(C)C(=O)C(Cc2ccc(OC)cc2)N(C)C(=O)C(C(C)C)NC(=O)C1C` (stereo not shown) [Compound 1, kakeromamide B], in series [1], the “blood-stage antimalarial activity (in words)” value is on record as “only moderately active”. Besides, the EC50 in series [1] (setting [4]) is 8.9 µM; in series [2] (setting [5]), above 12 µM; in series [2] (setting [6]), 11 µM. Further, the “HEK293T Cytotoxicity” value with HEK293T cells is above 23 µM. Further, the “cytotoxicity against HEK293T (in words)” value with HEK293T cells (HEK293T human cell line) is listed as “did not exhibit toxicity”. In addition, the “HepG2 Cytotoxicity” value with HepG2 cells was above 23 µM. Further, in the series on HepG2 cells (HepG2 human cell line), the “cytotoxicity against HepG2 / human liver cells (in words)” value was “did not exhibit toxicity”. For the same molecule, the “effect on mammalian actin polymerization (in words)” value at rabbit muscle actin (dose dependence) is “stimulated actin polymerization in a dose-dependent manner”. Also, the “effect on actin polymerization relative to controls” value was “enhancing actin polymerization” at rabbit muscle actin (highest tested concentration, 25 µM, Figure S23) and “moderately suppressed polymerization” at rabbit muscle actin (lowest tested concentration, 0.025 µM, Figure S23).

Take `CC[C@H](C)[C@@H]1NC(=O)CNC(=O)c2csc(n2)[C@H](C(C)(C)O)OC(=O)C(C)(C)[C@H](CCCC(C)(Cl)Cl)OC(=O)c2csc1n2` [Compound 3, lyngbyabellin A]: the EC50 was 0.0015 µM in series [1] (setting [4]); above 10 µM in series [2] (setting [3]); above 10 µM in series [2] (sporozoites from University of California San Diego (UCSD), 48 h). Further, in the series with HEK293T cells, the “HEK293T Cytotoxicity” value turned out to be 19 µM. In addition, the “selectivity index for Plasmodium versus HEK293T” value in the series with HEK293T cells (blood-stage P. falciparum versus normal kidney epithelial cells (HEK293T)) is listed as 13,000. In addition, the “HepG2 Cytotoxicity” value in the series on HepG2 cells worked out at 3.3 µM. The “selectivity index for Plasmodium versus HepG2” value with HepG2 cells (blood-stage P. falciparum versus human liver carcinoma cells (HepG2)) is 2,200.

As to `O=C1C(O)=C([C@H]2CC[C@H](c3ccc(Cl)cc3)CC2)C(=O)c2ccccc21` [Atovaquone, reference compound], the EC50 in series [2] (setting [5]) was 0.0037 µM; in series [2] (setting [6]), 0.0017 µM; in series [2] (Plasmodium berghei, HepG2, 48 h, sporozoites sourced from New York University (NYU) School of Medicine, 48 h), below 0.00028 µM. The “HEK293T Cytotoxicity” value with HEK293T cells is above 2.0 µM.

`CO[C@@H]1[C@@H](OC)[C@H](C)O[C@@H](O[C@@H]2C[C@H]3O[C@@](O)(C2)[C@H](C)C(=O)O[C@@H](/C=C/C=C/Br)C[C@@H](C)/C=C\C[C@H](O)[C@@H]3C)[C@@H]1OC` [Compound 5, lyngbyaloside]: the “blood-stage antimalarial activity (in words)” value in series [1] was “inactive”. In addition, the results for the EC50 in series [1] (setting [4]), in series [2] (setting [5]) and in series [2] (setting [6]) were above 7.9 µM, above 6.3 µM and 4.5 µM, respectively. The “HEK293T Cytotoxicity” value in the series on HEK293T cells is above 13 µM. The “HepG2 Cytotoxicity” value with HepG2 cells is above 13 µM.

Turning to `OC(c1cc(C(F)(F)F)nc2c(C(F)(F)F)cccc12)C1CCCCN1` (stereo not shown) [mefloquine, reference compound], the EC50 in series [1] (setting [4]) was determined as 0.0029 µM.

As to `CC1(C)c2nc(-c3ccc(F)cc3)c(Nc3ccc(F)cc3)n2CCN1C(=O)CN` [ganaplacide, reference compound], the EC50 in series [1] (setting [4]) is 0.0059 µM.

For `C/C1=C/C(=O)O[C@@H]2C[C@@H](CC[C@H](C)/C=C\C=C\CC1)O[C@@](O)([C@@H]1CSC(=O)N1)C2` [latrunculin A, reference compound], the “concentrations at which actin polymerization was suppressed” value at rabbit muscle actin (Figure S23) is listed as “above 1.2 µM”.
